In patent US6395896B2, “Pyridazine derivatives, manufacturing method and related composition” (Shiseido Co., Ltd., priority 1999, dated 2002):

Legend:
[1] = Colorant stabilization effect (photostabilizer, sunlight exposure); design: key to Sunlight exposure (80 MJ) Appearance: A: No change; B: No almost change; C: Yes change; key to Sunlight exposure (80 MJ) ΔE: ΔE color difference (Lab) vs. color before sunlight exposure; settings: photostabilizer 0.05 wt %
Procedure: First of all, the photostabilization effect and appearance change of a composition in each pigment were studied by the following evaluation formulation.
Each test sample was prepared. Observation of appearance change (visual evaluation) and measurement of color difference (ΔE) were carried out in samples exposed to sunlight exposure (around 80 MJ).
Color difference was measured by Lab coordinate system with spectrophotometer. Color difference was calculated on the basis of the color before sunlight exposure. Namely, from measured value (L1,a1,b1) before sunlight exposure, color difference (ΔE) was calculated by following formula.

[2] = Drug stabilization effect (photostabilizer, sunlight exposure); design: key to Sunlight exposure (80 MJ) Appearance: A: No change; B: No almost change; C: Yes change; settings: photostabilizer 0.05, amounts wt %
Procedure: Next, the photo stabilization effect and changes in appearance in drug compositions were studied according to the following evaluation formulation.
Each test sample was prepared. Appearance changes of the samples exposed to sunlight (80 MJ) was observed (visual evaluation). Also, residual yield was measured by liquid chromatography.

[3] = Perfume stabilization effect (photostabilizer, sunlight exposure, judgement by perfumier); design: key to Sunlight exposure (80 MJ) Smell evaluation / Sunlight exposure (80 MJ) evaluation: A: No change; B: No almost change; C: Yes change
Procedure: Next, the photostabilization effect for each perfume was studied by the following evaluation formulation.
Each test sample was prepared. Change of smell of sample exposed to sunlight (80 MJ) was observed (judgement by perfumier).

[4] = Pigment stabilization effect (sequestering agent combination); design: key to Sunlight exposure (80 MJ) Appearance: A: No change; B: No almost change; C: Yes change; key to Sunlight exposure (80 MJ) ΔE: color difference ΔE in Lab space vs. color before sunlight exposure; settings: photostabilizer 0, amounts wt %
Procedure: First of all, the photostabilization effect and appearance changes of a composition for each pigment were studied by the following evaluation formulation.
Each test sample was prepared. Observation of appearance changes (visual evaluation) and measurement of color difference (ΔE) were carried out for samples exposed to sunlight (around 80 MJ).
Color difference was measured by Lab coordinate system with spectrophotometer. Color difference was calculated based on the color before sunlight exposure. Namely, from the measured value (L1,a1,b1) before sunlight exposure, color difference (ΔE) was calculated by following formula.

[5] = Perfume stabilization effect (sequestering agent combination); design: key to Sunlight exposure (80 MJ) Smell evaluation: A: No change; B: No almost change; C: Yes change; settings: sequestering agent 0.03 alone, photostabilizer 0, amounts wt %
Procedure: Next, for combinations with sequestering agent, photostabilization effect for each perfume was studied by the following evaluation formulation.
Each test sample was prepared. Smell change of samples exposed to sunlight (80 MJ) was observed (judgement by perfumier).

[6] = Drug stabilization effect (sequestering agent combination); design: key to Sunlight exposure (80 MJ) Appearance: A: No change; B: No almost change; C: Yes change; settings: sequestering agent 0.03 alone, photostabilizer 0, amounts wt %
Procedure: Next, when combined with a sequestering agent, the photostabilization effect and appearance change of a composition for each drug was studied by the following evaluation formulation.
Each test sample was prepared. Appearance change of the samples exposed to sunlight (around 80 MJ) was observed (visual evaluation). Also, residual yield of a drug was measured by liquid chromatography.

[7] = drug 2-o-α-α-glucopyranosyl-L-ascorbic acid 2.0
[8] = drug Dibutylhydroxytoluene 0.01
[9] = drug Dipotassium glycyrrhizinate 0.05
[10] = drug L-ascorbic acid 2-(dl-α-tocopheryl hydrogen phosphate) potassium salt 0.01
[11] = colorant Blue No. 1 0.0001, sequestering agent 0.03 alone
[12] = colorant Green No. 3 0.0001, sequestering agent 0.03 alone
[13] = colorant Red No. 106 0.0001, sequestering agent 0.02 alone
[14] = colorant Red No. 213 0.0001, sequestering agent 0.05 alone
[15] = colorant Red No. 227 0.0001, sequestering agent 0.02 alone
[16] = colorant Red No. 401 0.001, sequestering agent 0.1 alone
[17] = colorant Yellow No. 5 0.001, sequestering agent 0.02 alone
[18] = colorant Yellow No. 203 0.001, sequestering agent 0.02 alone
[19] = colorants Red No. 227 0.0001 + Yellow No. 203 0.0001, sequestering agent 0.02 alone
[20] = colorants Red No. 401 0.0001 + Green No. 3 0.00001, sequestering agent 0.03 alone
[21] = colorants Yellow No. 203 0.0001 + Yellow No. 5 0.0001, sequestering agent 0.01 alone

CCCCCCCCOC(=O)C=Cc1ccc(OC)cc1 [Octyl p-methoxycinnamate, reference compound]
Sunlight exposure (80 MJ) Appearance ([1]; Blue No. 1 0.0001 wt %): C | Sunlight exposure (80 MJ) ΔE ([1]; Blue No. 1 0.0001 wt %): 5.23 | Sunlight exposure (80 MJ) Appearance ([1]; Green No. 3 0.0001 wt %): C | Sunlight exposure (80 MJ) ΔE ([1]; Green No. 3 0.0001 wt %): 1.64 | Sunlight exposure (80 MJ) Appearance ([1]; Red No. 106 0.0001 wt %): C | Sunlight exposure (80 MJ) ΔE ([1]; Red No. 106 0.0001 wt %): 1.95 | Sunlight exposure (80 MJ) Appearance ([1]; Red No. 213 0.0001 wt %): C | Sunlight exposure (80 MJ) ΔE ([1]; Red No. 213 0.0001 wt %): 2.55 | Sunlight exposure (80 MJ) Appearance ([1]; Red No. 227 0.0001 wt %): C | Sunlight exposure (80 MJ) ΔE ([1]; Red No. 227 0.0001 wt %): 1.22 | Sunlight exposure (80 MJ) Appearance ([1]; Red No. 401 0.001 wt %): C | Sunlight exposure (80 MJ) ΔE ([1]; Red No. 401 0.001 wt %): 4.76 | Sunlight exposure (80 MJ) Appearance ([1]; Yellow No. 5 0.001 wt %): C | Sunlight exposure (80 MJ) ΔE ([1]; Yellow No. 5 0.001 wt %): 1.56 | Sunlight exposure (80 MJ) Appearance ([1]; Yellow No. 203 0.001 wt %): C | Sunlight exposure (80 MJ) ΔE ([1]; Yellow No. 203 0.001 wt %): 2.43 | Sunlight exposure (80 MJ) Appearance [2, 7]: C | Sunlight exposure (80 MJ) Residual yield [%] [2, 7]: 92.3% | Sunlight exposure (80 MJ) Appearance [2, 8]: C | Sunlight exposure (80 MJ) Residual yield [%] [2, 8]: 71.7% | Sunlight exposure (80 MJ) Appearance [2, 9]: C | Sunlight exposure (80 MJ) Residual yield [%] [2, 9]: 90.8% | Sunlight exposure (80 MJ) Appearance [2, 10]: C | Sunlight exposure (80 MJ) Residual yield [%] [2, 10]: 82.1% | Sunlight exposure (80 MJ) Appearance ([2]; drug Salicylic acid 0.1): C | Sunlight exposure (80 MJ) Residual yield [%] ([2]; drug Salicylic acid 0.1): 92.2% | Sunlight exposure (80 MJ) Smell evaluation ([3]; Base perfume Fruity 0.03 wt %, photostabilizer 0.1 wt %): C | Sunlight exposure (80 MJ) Smell evaluation ([3]; Base perfume Muguet 0.03 wt %, photostabilizer 0.05 wt %): C | Sunlight exposure (80 MJ) Smell evaluation ([3]; Base perfume Rose 0.03 wt %, photostabilizer 0.05 wt %): C | Sunlight exposure (80 MJ) Smell evaluation ([3]; Base perfume Spicy 0.03 wt %, photostabilizer 0.2 wt %): C | Sunlight exposure (80 MJ) Smell evaluation ([3]; Base perfume Woody 0.03 wt %, photostabilizer 0.1 wt %): C | Sunlight exposure (80 MJ) Smell evaluation ([3]; Natural perfume Jasmine oil 0.03 wt %, photostabilizer 0.05 wt %): C | Sunlight exposure (80 MJ) Smell evaluation ([3]; Natural perfume Lavender oil 0.03 wt %, photostabilizer 0.1 wt %): C | Sunlight exposure (80 MJ) Smell evaluation ([3]; Natural perfume Neroli oil 0.03 wt %, photostabilizer 0.1 wt %): C | Sunlight exposure (80 MJ) Smell evaluation ([3]; Natural perfume Rose oil 0.03 wt %, photostabilizer 0.05 wt %): C | Sunlight exposure (80 MJ) Smell evaluation ([3]; Natural perfume Ylang ylang oil 0.03 wt %, photostabilizer 0.2 wt %): C | Sunlight exposure (80 MJ) Smell evaluation ([3]; Synthetic perfume Citral 0.03 wt %, photostabilizer 0.1 wt %): C | Sunlight exposure (80 MJ) Smell evaluation ([3]; Synthetic perfume Limonene 0.03 wt %, photostabilizer 0.05 wt %): C | Sunlight exposure (80 MJ) Smell evaluation ([3]; Synthetic perfume Linalool 0.03 wt %, photostabilizer 0.05 wt %): C | Sunlight exposure (80 MJ) Smell evaluation ([3]; Synthetic perfume Linalyl acetate 0.03 wt %, photostabilizer 0.1 wt %): C | Sunlight exposure (80 MJ) Smell evaluation ([3]; Synthetic perfume Rose oxide 0.03 wt %, photostabilizer 0.2 wt %): C

Sodium metaphosphate
Sunlight exposure (80 MJ) Appearance [4, 11]: C | Sunlight exposure (80 MJ) ΔE [4, 11]: 8.02 | Sunlight exposure (80 MJ) Appearance [4, 12]: C | Sunlight exposure (80 MJ) ΔE [4, 12]: 2.02 | Sunlight exposure (80 MJ) Appearance [4, 13]: C | Sunlight exposure (80 MJ) ΔE [4, 13]: 2.88 | Sunlight exposure (80 MJ) Appearance [4, 14]: C | Sunlight exposure (80 MJ) ΔE [4, 14]: 3.71 | Sunlight exposure (80 MJ) Appearance [4, 15]: C | Sunlight exposure (80 MJ) ΔE [4, 15]: 1.37 | Sunlight exposure (80 MJ) Appearance [4, 16]: C | Sunlight exposure (80 MJ) ΔE [4, 16]: 7.07 | Sunlight exposure (80 MJ) Appearance [4, 17]: C | Sunlight exposure (80 MJ) ΔE [4, 17]: 1.77 | Sunlight exposure (80 MJ) Appearance [4, 18]: C | Sunlight exposure (80 MJ) ΔE [4, 18]: 2.74 | Sunlight exposure (80 MJ) Appearance [4, 19]: C | Sunlight exposure (80 MJ) ΔE [4, 19]: 3.01 | Sunlight exposure (80 MJ) Appearance [4, 20]: C | Sunlight exposure (80 MJ) ΔE [4, 20]: 4.23 | Sunlight exposure (80 MJ) Appearance [4, 21]: C | Sunlight exposure (80 MJ) ΔE [4, 21]: 1.44 | Sunlight exposure (80 MJ) Smell evaluation ([5]; natural perfume Jasmine oil 0.03): C | Sunlight exposure (80 MJ) Smell evaluation ([5]; natural perfume Musk oil 0.03): C | Sunlight exposure (80 MJ) Smell evaluation ([5]; natural perfume Orange oil 0.03): C | Sunlight exposure (80 MJ) Smell evaluation ([5]; perfume Fruity 0.03): C | Sunlight exposure (80 MJ) Smell evaluation ([5]; perfume Muguet 0.03): C | Sunlight exposure (80 MJ) Smell evaluation ([5]; synthetic perfume Lilial 0.03): C | Sunlight exposure (80 MJ) Smell evaluation ([5]; synthetic perfume Oranthiol 0.03): C | Sunlight exposure (80 MJ) Appearance [6, 7]: C | Sunlight exposure (80 MJ) Residual yield [%] [6, 7]: 85.2% | Sunlight exposure (80 MJ) Appearance [6, 8]: C | Sunlight exposure (80 MJ) Residual yield [%] [6, 8]: 54.7% | Sunlight exposure (80 MJ) Appearance [6, 9]: B | Sunlight exposure (80 MJ) Residual yield [%] [6, 9]: 85.8%
